Experiments:
Assay in all cases: relative viability (nuclei count vs DMSO), 5 days (fraction); higher = more cells survive
BAY61-3606 + OSI-027 = compound: COC1=C(C=C(C=C1)C2=CC3=NC=CN3C(=N2)NC4=C(C=CC=N4)C(=O)N)OC [BAY61-3606] + COc1cccc2cc(-c3nc([C@H]4CC[C@H](C(=O)O)CC4)n4ncnc(N)c34)[nH]c12 [OSI-027] (partner 0.5 µM)
How it was run: (§1)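 Relative viability was taken as the ratio of nuclei in treated wells to nuclei in vehicle wells. Lung cancer cell lines in 1536-well plates received compounds by pin tool one day after seeding, either one drug alone or a fixed anchor-drug dose plus five library-drug doses (not always all listed) in √10 steps. Nuclei were counted on 4× images after 5 days of treatment, and values are medians of duplicate plates.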

Doxorubicin + Phenformin = compound: COc1cccc2c1C(=O)c1c(O)c3c(c(O)c1C2=O)C[C@@](O)(C(=O)CO)C[C@@H]3O[C@H]1C[C@H](N)[C@H](O)[C@H](C)O1 [Doxorubicin] + N=C(N)NC(=N)NCCc1ccccc1 [Phenformin] (partner 250 µM)
How it was run: as §1

BAY61-3606 + Dasatinib = compound: COC1=C(C=C(C=C1)C2=CC3=NC=CN3C(=N2)NC4=C(C=CC=N4)C(=O)N)OC [BAY61-3606] + Cc1nc(Nc2ncc(C(=O)Nc3c(C)cccc3Cl)s2)cc(N2CCN(CCO)CC2)n1 [Dasatinib] (partner 0.075 µM)
How it was run: as §1

BAY61-3606 + Tozasertib = compound: COC1=C(C=C(C=C1)C2=CC3=NC=CN3C(=N2)NC4=C(C=CC=N4)C(=O)N)OC [BAY61-3606] + Cc1cc(Nc2cc(N3CCN(C)CC3)nc(Sc3ccc(NC(=O)C4CC4)cc3)n2)n[nH]1 [Tozasertib] (partner 0.1 µM)
How it was run: as §1

Work on UMC-11 yielded a relative viability (BAY61-3606 + OSI-027; first compound 0.02 µM) of 0.544, a relative viability (BAY61-3606 + OSI-027; first compound 0.06325 µM) of 0.467 and a relative viability (BAY61-3606 + OSI-027; first compound 0.2 µM) of 0.476. The relative viability (BAY61-3606 + OSI-027; first compound 0.6325 µM) was 0.461, the relative viability (BAY61-3606 + OSI-027; first compound 2 µM) was 0.375 and the relative viability (Doxorubicin + Phenformin; first compound 0.001 µM) was 0.307. The relative viability (Doxorubicin + Phenformin; first compound 0.003162 µM) was 0.247, the relative viability (Doxorubicin + Phenformin; first compound 0.01 µM) was 0.313 and the relative viability (Doxorubicin + Phenformin; first compound 0.03162 µM) was 0.207. It also gave a relative viability (Doxorubicin + Phenformin; first compound 0.1 µM) of 0.233, a relative viability (BAY61-3606 + Dasatinib; first compound 0.02 µM) of 0.464 and a relative viability (BAY61-3606 + Dasatinib; first compound 0.06325 µM) of 0.587. For the same cell line, the relative viability (BAY61-3606 + Dasatinib; first compound 0.2 µM) was 0.568, the relative viability (BAY61-3606 + Dasatinib; first compound 0.6325 µM) was 0.606 and the relative viability (BAY61-3606 + Dasatinib; first compound 2 µM) was 0.524. It also gave a relative viability (BAY61-3606 + Tozasertib; first compound 0.02 µM) of 0.2, a relative viability (BAY61-3606 + Tozasertib; first compound 0.06325 µM) of 0.208 and a relative viability (BAY61-3606 + Tozasertib; first compound 0.2 µM) of 0.207. The relative viability (BAY61-3606 + Tozasertib; first compound 0.6325 µM) was 0.201 and the relative viability (BAY61-3606 + Tozasertib; first compound 2 µM) was 0.192.

Source: the supplement of paper PMC10307832
